Key:
X-MuLV = X-MuLV virus inactivation using caprylic acid and detergents in test tubes; assay type: cell-based, xenotropic murine leukemia virus; details: for time for complete virus inactivation: clarified cell culture
[1] = system: Herpes simplex virus-1 (HSV-1); details: 20° C., cell culture harvest broth; cited from earlier work
[2] = system: Vesicular stomatitis virus (VSV); details: cited from earlier work
[3] = system: Friend murine leukemia virus (FrMuLV); details: 0.5%, 4° C., within four hours; cited from earlier work
[4] = system: respiratory syncytial virus (RSV); details: 0.5%, 4° C., within four hours; cited from earlier work

## CCCCCCCC(=O)O [Caprylate, caprylic acid]
X-MuLV; MAb05 cell culture, 20 mM pH 5.5, time 0 min
  X-MuLV virus inactivation (LRV): 0
X-MuLV; MAb05 cell culture, 20 mM pH 5.5, time 1 min
  X-MuLV virus inactivation (LRV): 2.63
X-MuLV; MAb05 cell culture, 20 mM pH 5.5, time 5 min
  X-MuLV virus inactivation (LRV): ≧3.8
X-MuLV; MAb05 cell culture, 20 mM pH 5.5, time 10 min
  X-MuLV virus inactivation (LRV): ≧3.8
X-MuLV; MAb05 cell culture, 20 mM pH 5.5, time 20 min
  X-MuLV virus inactivation (LRV): ≧3.8
X-MuLV; MAb05 cell culture, 200 mM pH 7, time 0 min
  X-MuLV virus inactivation (LRV): 0
X-MuLV; MAb05 cell culture, 200 mM pH 7, time 1 min
  X-MuLV virus inactivation (LRV): 2.91
X-MuLV; MAb05 cell culture, 200 mM pH 7, time 5 min
  X-MuLV virus inactivation (LRV): ≧3.8
X-MuLV; MAb05 cell culture, 200 mM pH 7, time 10 min
  X-MuLV virus inactivation (LRV): ≧3.8
X-MuLV; MAb05 cell culture, 200 mM pH 7, time 20 min
  X-MuLV virus inactivation (LRV): ≧3.8
X-MuLV; Pure MAb07, 20 mM pH 5.5, time 0 min
  X-MuLV virus inactivation (LRV): 0
X-MuLV; Pure MAb07, 20 mM pH 5.5, time 1 min
  X-MuLV virus inactivation (LRV): ≧3.1
X-MuLV; Pure MAb07, 20 mM pH 5.5, time 5 min
  X-MuLV virus inactivation (LRV): ≧3.1
X-MuLV; Pure MAb07, 20 mM pH 5.5, time 10 min
  X-MuLV virus inactivation (LRV): ≧3.1
X-MuLV; Pure MAb07, 20 mM pH 5.5, time 20 min
  X-MuLV virus inactivation (LRV): ≧3.1
X-MuLV; Pure MAb07, 200 mM pH 7, time 0 min
  X-MuLV virus inactivation (LRV): 0
X-MuLV; Pure MAb07, 200 mM pH 7, time 1 min
  X-MuLV virus inactivation (LRV): ≧3.1
X-MuLV; Pure MAb07, 200 mM pH 7, time 5 min
  X-MuLV virus inactivation (LRV): ≧3.1
X-MuLV; Pure MAb07, 200 mM pH 7, time 10 min
  X-MuLV virus inactivation (LRV): ≧3.1
X-MuLV; Pure MAb07, 200 mM pH 7, time 20 min
  X-MuLV virus inactivation (LRV): ≧3.1
X-MuLV; both pH and salinities
  time for complete virus inactivation: requires a minimum of five minutes
[1]
  time to complete inactivation: less than 60 minutes
[2]; 5° C., after 120 minutes
  inactivation: only partial inactivation
[2]; 20° C., cell culture harvest broth
  time to complete inactivation: less than 60 minutes

## Triton X
X-MuLV; MAb05 cell culture, 0.5%, time 0 min
  X-MuLV virus inactivation (LRV): 0
X-MuLV; MAb05 cell culture, 0.5%, time 1 min
  X-MuLV virus inactivation (LRV): ≧3.1
X-MuLV; MAb05 cell culture, 0.5%, time 5 min
  X-MuLV virus inactivation (LRV): ≧3.1
X-MuLV; MAb05 cell culture, 0.5%, time 10 min
  X-MuLV virus inactivation (LRV): ≧3.1
X-MuLV; MAb05 cell culture, 0.5%, time 20 min
  X-MuLV virus inactivation (LRV): ≧3.1
X-MuLV; Pure MAb07, 0.5%, time 0 min
  X-MuLV virus inactivation (LRV): 0
X-MuLV; Pure MAb07, 0.5%, time 1 min
  X-MuLV virus inactivation (LRV): ≧3.1
X-MuLV; Pure MAb07, 0.5%, time 5 min
  X-MuLV virus inactivation (LRV): ≧3.1
X-MuLV; Pure MAb07, 0.5%, time 10 min
  X-MuLV virus inactivation (LRV): ≧3.1
X-MuLV; Pure MAb07, 0.5%, time 20 min
  X-MuLV virus inactivation (LRV): ≧3.1
X-MuLV; 0.5%
  time for complete virus inactivation: complete virus inactivation after one minute
[3]
  Log 10 reduction values: > 3.8
[4]
  Log 10 reduction values: > 5.4

Source: patent publication US9809799B2, “Methods for inactivating viruses during a protein purification process” (priority 2012, dated 2017)
